Measured values: article PMC11752888 (Frontiers in Microbiology, 2025)

Experiments:
[1] = target: T1, JTY_0672 (Mycobacterium tuberculosis, UniProt P96941)
T1 construct: gene Rv0653c

[2] = tested on: JTY_0672 (TetR family transcriptional regulator) (Mycobacterium bovis BCG Tokyo 172); assay: BLI

T1 sequence (P96941 entry or part of it): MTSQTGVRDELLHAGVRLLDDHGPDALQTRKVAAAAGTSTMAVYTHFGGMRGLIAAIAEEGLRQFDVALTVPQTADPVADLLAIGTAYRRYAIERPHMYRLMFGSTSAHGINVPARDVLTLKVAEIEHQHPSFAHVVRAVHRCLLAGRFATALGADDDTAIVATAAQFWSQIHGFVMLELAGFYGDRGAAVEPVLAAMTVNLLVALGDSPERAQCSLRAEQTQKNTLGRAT

Compound | concentration influencing DNA binding [1] | Kd [2]
N[C@@H](CS)C(=O)O [Cys] | 4 mM | –
N[C@@H](CCC(=O)O)C(=O)O [Glu] | 20 mM | –
JTY_3148 promoter PCR fragment (biotin) | – | 2.2 µM
ATTCATGGTCAGCGCCTTCCCCGGTGATCCGGATTATCTGCAACCGTCAG (double strand) [JTY_3148 promoter, 50 bp WT C13] | – | 5.03 µM
N[C@@H](CC(=O)O)C(=O)O [Asp] | 20 mM | –
N[C@@H](Cc1cnc[nH]1)C(=O)O [His] | 40 mM | –
O=C(O)c1cccnc1 [VB3] | 8 mM | –
O=C1O[C@H]([C@@H](O)CO)C(O)=C1O [VC] | 4 mM | –
Cc1ncc(C[n+]2csc(CCO)c2C)c(N)n1 [VB1] | 8 mM | –
